Data taken from paper PMC5218480 (PLoS ONE, 2017).

Tested on: MV-4-11 cells
Experiment: Gene expression microarray analysis (Affymetrix PrimeView) and GSEA
Type: cell-based, human
Set-up: RFU PODN (11730768_x_at) / Fold change /veh PODN (11730768_x_at) / RFU LINC00158 (11744669_a_at) / Fold change /veh LINC00158 (11744669_a_at) / RFU DUSP10 (11751237_a_at) / Fold change /veh DUSP10 (11751237_a_at) / RFU ID3 (11757404_x_at) / Fold change /veh ID3 (11757404_x_at) / RFU PLEKHG5 (11737974_s_at) / Fold change /veh PLEKHG5 (11737974_s_at) / RFU LRRC4B (11730491_at) / Fold change /veh LRRC4B (11730491_at) / RFU GIMAP4 (11747438_a_at) / Fold change /veh GIMAP4 (11747438_a_at) / RFU KRT8 (11758183_x_at) / Fold change /veh KRT8 (11758183_x_at) / RFU CNN1 (11734310_a_at) / Fold change /veh CNN1 (11734310_a_at) / RFU VPS37D (11726825_at) / Fold change /veh VPS37D (11726825_at) / RFU C10orf10 (11716522_x_at) / Fold change /veh C10orf10 (11716522_x_at) / RFU KIR2DL2 /// KIR2DL4 /// KIR2DL5A /// KIR2DL5B /// KIR2DS1 /// KIR2DS2 /// KIR2DS3 /// KIR2DS4 /// KIR3DL3 /// KIR3DL3 /// KIR3DS1 (11738374_at) / Fold change /veh KIR2DL2 /// KIR2DL4 /// KIR2DL5A /// KIR2DL5B /// KIR2DS1 /// KIR2DS2 /// KIR2DS3 /// KIR2DS4 /// KIR3DL3 /// KIR3DL3 /// KIR3DS1 (11738374_at) / RFU C1QL1 (11718748_at) / Fold change /veh C1QL1 (11718748_at) / RFU TMPRSS4 (11747572_a_at) / Fold change /veh TMPRSS4 (11747572_a_at) / RFU HAMP (11756126_x_at) / Fold change /veh HAMP (11756126_x_at) / RFU RNFT2 (11725882_a_at) / Fold change /veh RNFT2 (11725882_a_at) / RFU NR4A2 (11747474_a_at) / Fold change /veh NR4A2 (11747474_a_at) / RFU ABCC12 (11746883_a_at) / Fold change /veh ABCC12 (11746883_a_at) / RFU TMEM136 (11760407_x_at) / Fold change /veh TMEM136 (11760407_x_at) / RFU CLDN22 /// WWC2 (11732394_at) / Fold change /veh CLDN22 /// WWC2 (11732394_at) / RFU HLA-DPB1 (11760878_x_at) / Fold change /veh HLA-DPB1 (11760878_x_at) / RFU SPINT1 (11716480_a_at) / Fold change /veh SPINT1 (11716480_a_at) / RFU GAP43 (11754022_s_at) / Fold change /veh GAP43 (11754022_s_at) / RFU A4GNT (11735810_at) / Fold change /veh A4GNT (11735810_at) / RFU PRB3 (11715151_x_at) / Fold change /veh PRB3 (11715151_x_at) / RFU TUBB4B (11761932_at) / Fold change /veh TUBB4B (11761932_at) / RFU CAPN14 (11732068_a_at) / Fold change /veh CAPN14 (11732068_a_at) / RFU TMCC2 (11721928_a_at) / Fold change /veh TMCC2 (11721928_a_at) / RFU IRGQ (11745062_a_at) / Fold change /veh IRGQ (11745062_a_at) / RFU FAM174B (11720279_a_at) / Fold change /veh FAM174B (11720279_a_at) / RFU TMPRSS4 (11748680_a_at) / Fold change /veh TMPRSS4 (11748680_a_at) / RFU FAM212B (11763350_a_at) / Fold change /veh FAM212B (11763350_a_at) / RFU PLEKHG5 (11743358_a_at) / Fold change /veh PLEKHG5 (11743358_a_at) / RFU ZSCAN30 (11745921_a_at) / Fold change /veh ZSCAN30 (11745921_a_at) / RFU CMKLR1 (11741424_a_at) / Fold change /veh CMKLR1 (11741424_a_at) / RFU LOC101060620 /// MAPK8IP1 (11723275_at) / Fold change /veh LOC101060620 /// MAPK8IP1 (11723275_at) / RFU SPTSSB (11747773_x_at) / Fold change /veh SPTSSB (11747773_x_at) / RFU PRSS12 (11739890_at) / Fold change /veh PRSS12 (11739890_at) / RFU BIN1 (11741810_x_at) / Fold change /veh BIN1 (11741810_x_at) / RFU WNT11 (11732464_a_at) / Fold change /veh WNT11 (11732464_a_at) / RFU C10orf10 (11716521_a_at) / Fold change /veh C10orf10 (11716521_a_at) / RFU C5orf56 (11738089_at) / Fold change /veh C5orf56 (11738089_at) / RFU CYB561 (11721691_x_at) / Fold change /veh CYB561 (11721691_x_at) / RFU ANKRD19P (11752326_a_at) / Fold change /veh ANKRD19P (11752326_a_at) / RFU OR2T12 /// OR2T33 /// OR2T8 (11738714_s_at) / Fold change /veh OR2T12 /// OR2T33 /// OR2T8 (11738714_s_at) / RFU VCAN (11748164_a_at) / Fold change /veh VCAN (11748164_a_at) / RFU JSRP1 (11732532_at) / Fold change /veh JSRP1 (11732532_at) / RFU KRTAP10-11 (11738290_x_at) / Fold change /veh KRTAP10-11 (11738290_x_at) / RFU MYO3A (11730013_a_at) / Fold change /veh MYO3A (11730013_a_at) / RFU EBF3 (11725865_a_at) / Fold change /veh EBF3 (11725865_a_at) / RFU CAMK2N1 (11719241_x_at) / Fold change /veh CAMK2N1 (11719241_x_at) / RFU C5orf56 (11738088_a_at) / Fold change /veh C5orf56 (11738088_a_at) / RFU OLFML3 (11715873_a_at) / Fold change /veh OLFML3 (11715873_a_at) / RFU LOC100653217 /// NTM (11731650_a_at) / Fold change /veh LOC100653217 /// NTM (11731650_a_at) / RFU MAPK11 (11762145_a_at) / Fold change /veh MAPK11 (11762145_a_at) / RFU FIZ1 (11724087_x_at) / Fold change /veh FIZ1 (11724087_x_at) / RFU OASL (11726364_x_at) / Fold change /veh OASL (11726364_x_at) / RFU SOX15 (11748057_x_at) / Fold change /veh SOX15 (11748057_x_at) / RFU CD79A (11719716_a_at) / Fold change /veh CD79A (11719716_a_at) / RFU HIST1H1D (11736915_at) / Fold change /veh HIST1H1D (11736915_at) / RFU CASKIN2 (11723855_a_at) / Fold change /veh CASKIN2 (11723855_a_at) / RFU LOC730098 (11760151_x_at) / Fold change /veh LOC730098 (11760151_x_at) / RFU OR4N2 (11742367_at) / Fold change /veh OR4N2 (11742367_at) / RFU PRRT2 (11749266_a_at) / Fold change /veh PRRT2 (11749266_a_at) / RFU SNX32 (11753110_a_at) / Fold change /veh SNX32 (11753110_a_at) / RFU CDHR5 (11726645_a_at) / Fold change /veh CDHR5 (11726645_a_at) / RFU RCAN1 (11760418_a_at) / Fold change /veh RCAN1 (11760418_a_at) / RFU FAM167A (11723789_a_at) / Fold change /veh FAM167A (11723789_a_at) / RFU FAM26E (11764081_at) / Fold change /veh FAM26E (11764081_at) / RFU ISYNA1 (11749810_s_at) / Fold change /veh ISYNA1 (11749810_s_at) / RFU ACY1 (11761880_at) / Fold change /veh ACY1 (11761880_at) / RFU 11764098_at / Fold change /veh 11764098_at / RFU SAMD14 (11745864_x_at) / Fold change /veh SAMD14 (11745864_x_at) / RFU NPB (11741838_a_at) / Fold change /veh NPB (11741838_a_at) / RFU TMPRSS6 (11731388_a_at) / Fold change /veh TMPRSS6 (11731388_a_at) / RFU KRTAP10-2 (11738614_at) / Fold change /veh KRTAP10-2 (11738614_at) / RFU ARHGAP8 /// PRR5-ARHGAP8 (11727945_x_at) / Fold change /veh ARHGAP8 /// PRR5-ARHGAP8 (11727945_x_at) / RFU KRTAP5-7 /// NADSYN1 (11734609_at) / Fold change /veh KRTAP5-7 /// NADSYN1 (11734609_at) / RFU RASL12 (11751679_a_at) / Fold change /veh RASL12 (11751679_a_at) / RFU CDKN2B (11736163_a_at) / Fold change /veh CDKN2B (11736163_a_at) / RFU PRF1 (11729649_at) / Fold change /veh PRF1 (11729649_at) / RFU, ZNF638 /// ZNF638-IT1 / Fold change vs veh, ZNF638 /// ZNF638-IT1 / RFU, PANK3 / Fold change vs veh, PANK3 / RFU, SH3YL1 / Fold change vs veh, SH3YL1 / RFU, ZEB2 / Fold change vs veh, ZEB2 / RFU, NRIP1 / Fold change vs veh, NRIP1 / RFU, PTTG1IP / Fold change vs veh, PTTG1IP / RFU, CAPN2 / Fold change vs veh, CAPN2 / RFU, MED14 / Fold change vs veh, MED14 / RFU, SNORA58 / Fold change vs veh, SNORA58 / RFU, C1orf63 / Fold change vs veh, C1orf63 / RFU, LRRFIP1 / Fold change vs veh, LRRFIP1 / RFU, NDUFAF7 / Fold change vs veh, NDUFAF7 / RFU, SLC12A2 / Fold change vs veh, SLC12A2 / RFU, IBTK / Fold change vs veh, IBTK / RFU, ESF1 / Fold change vs veh, ESF1 / Fold change vs veh, TMEM50B / RFU, TAOK1 / Fold change vs veh, TAOK1 / RFU, ACBD3 / Fold change vs veh, ACBD3 / RFU, TMA16 / Fold change vs veh, TMA16 / RFU, RWDD3 / Fold change vs veh, RWDD3 / RFU, BCAT1 / Fold change vs veh, BCAT1 / RFU, EDEM3 / Fold change vs veh, EDEM3 / RFU, TMEM33 / Fold change vs veh, TMEM33 / RFU, WDR75 / Fold change vs veh, WDR75 / RFU, AHCTF1 / Fold change vs veh, AHCTF1 / RFU, TFRC / Fold change vs veh, TFRC / RFU, ZDHHC17 / Fold change vs veh, ZDHHC17 / RFU, NOM1 / Fold change vs veh, NOM1 / RFU, ARL8B / Fold change vs veh, ARL8B / RFU, ZBTB11 / Fold change vs veh, ZBTB11 / RFU, TAMM41 / Fold change vs veh, TAMM41 / RFU, KIAA1704 /// LOC100996395 / Fold change vs veh, KIAA1704 /// LOC100996395 / RFU, ING1 / Fold change vs veh, ING1 / RFU, TRMT61B / Fold change vs veh, TRMT61B / RFU, FUBP3 / Fold change vs veh, FUBP3 / RFU, TP53 / Fold change vs veh, TP53 / RFU, TNKS2 / Fold change vs veh, TNKS2 / RFU, ZFP14 / Fold change vs veh, ZFP14 / RFU, ACTR2 / Fold change vs veh, ACTR2 / RFU, PPP3R1 / Fold change vs veh, PPP3R1 / RFU, PIK3R1 / Fold change vs veh, PIK3R1 / RFU, HNRNPA1 / Fold change vs veh, HNRNPA1 / RFU, RNF170 / Fold change vs veh, RNF170 / RFU, ZNF28 / Fold change vs veh, ZNF28 / RFU, RNGTT / Fold change vs veh, RNGTT / RFU, OGT / Fold change vs veh, OGT / RFU, BRD1 / Fold change vs veh, BRD1 / RFU, MARS / Fold change vs veh, MARS / RFU, ZNF655 / Fold change vs veh, ZNF655 / RFU, FAHD1 / Fold change vs veh, FAHD1 / RFU, BDP1 / Fold change vs veh, BDP1 / RFU, LRRCC1 / Fold change vs veh, LRRCC1 / RFU, ARID1A / Fold change vs veh, ARID1A / RFU, ZNF146 / Fold change vs veh, ZNF146 / RFU, ZNF330 / Fold change vs veh, ZNF330 / RFU, GPN3 / Fold change vs veh, GPN3 / RFU, C9orf123 / Fold change vs veh, C9orf123 / RFU, N4BP2L2 / Fold change vs veh, N4BP2L2 / RFU, ARFIP1 / Fold change vs veh, ARFIP1 / RFU, FAM179B / Fold change vs veh, FAM179B / RFU, BCL10 / Fold change vs veh, BCL10 / RFU, UHRF1BP1L / Fold change vs veh, UHRF1BP1L / RFU, BET1 / Fold change vs veh, BET1 / RFU, CNOT2 / Fold change vs veh, CNOT2 / RFU, ZNF268 / Fold change vs veh, ZNF268 / Fold change vs veh, ZNF507 / RFU, DGCR2 / Fold change vs veh, DGCR2 / RFU, WDSUB1 / Fold change vs veh, WDSUB1 / Fold change vs veh, HSP90B1 /// MIR3652 / RFU, ADSS / Fold change vs veh, ADSS / RFU, GK / Fold change vs veh, GK / RFU, ZNF148 / Fold change vs veh, ZNF148 / RFU, TAF9 / Fold change vs veh, TAF9 / RFU, SLC1A5 / Fold change vs veh, SLC1A5 / RFU, SLMO2 / Fold change vs veh, SLMO2 / RFU, ABCC4 / Fold change vs veh, ABCC4 / RFU, LOC101060439 /// RAP1B / Fold change vs veh, LOC101060439 /// RAP1B / RFU, RFX7 / Fold change vs veh, RFX7 / RFU, GTPBP10 / Fold change vs veh, GTPBP10 / RFU, CNEP1R1 / Fold change vs veh, CNEP1R1 / RFU, BIVM-ERCC5 /// ERCC5 / Fold change vs veh, BIVM-ERCC5 /// ERCC5 / RFU, ILF3 / Fold change vs veh, ILF3 / RFU 11762660_at / Fold change /veh 11762660_at / RFU VCAN (11757783_s_at) / Fold change /veh VCAN (11757783_s_at) / RFU DDX43 (11728927_at) / Fold change /veh DDX43 (11728927_at) / RFU KRT8 (11758188_x_at) / Fold change /veh KRT8 (11758188_x_at) / RFU NKD1 (11759106_at) / Fold change /veh NKD1 (11759106_at) / RFU SRD5A1 (11742802_a_at) / Fold change /veh SRD5A1 (11742802_a_at) / RFU TPSAB1 /// TPSB2 (11721975_s_at) / Fold change /veh TPSAB1 /// TPSB2 (11721975_s_at) / RFU GSTM3 (11746129_a_at) / Fold change /veh GSTM3 (11746129_a_at) / RFU IL23R (11737362_x_at) / Fold change /veh IL23R (11737362_x_at) / RFU TMEM51 (11727254_a_at) / Fold change /veh TMEM51 (11727254_a_at) / RFU PIWIL2 (11732686_x_at) / Fold change /veh PIWIL2 (11732686_x_at) / RFU ORM1 (11744905_x_at) / Fold change /veh ORM1 (11744905_x_at) / RFU CCDC152 (11743942_at) / Fold change /veh CCDC152 (11743942_at) / RFU ECM1 (11717891_a_at) / Fold change /veh ECM1 (11717891_a_at) / RFU IL23R (11748794_a_at) / Fold change /veh IL23R (11748794_a_at) / RFU TNFAIP8L3 (11732012_x_at) / Fold change /veh TNFAIP8L3 (11732012_x_at) / RFU MBOAT4 (11741988_at) / Fold change /veh MBOAT4 (11741988_at) / RFU 11764193_at / Fold change /veh 11764193_at / RFU TMEM53 (11763286_at) / Fold change /veh TMEM53 (11763286_at) / RFU MAGEB2 (11727129_at) / Fold change /veh MAGEB2 (11727129_at) / RFU TMEM200A (11744735_a_at) / Fold change /veh TMEM200A (11744735_a_at) / RFU CCDC152 (11751479_a_at) / Fold change /veh CCDC152 (11751479_a_at) / RFU FAM211A (11726209_a_at) / Fold change /veh FAM211A (11726209_a_at) / RFU RGS16 (11746705_a_at) / Fold change /veh RGS16 (11746705_a_at) / RFU VCAN (11755009_s_at) / Fold change /veh VCAN (11755009_s_at) / RFU RHOB (11743442_s_at) / Fold change /veh RHOB (11743442_s_at) / RFU RGS16 (11720943_a_at) / Fold change /veh RGS16 (11720943_a_at) / RFU RGS16 (11720944_at) / Fold change /veh RGS16 (11720944_at) / RFU, VPS4B / Fold change vs veh, VPS4B / RFU, CREB1 / Fold change vs veh, CREB1 / RFU, DNAJC13 / Fold change vs veh, DNAJC13 / RFU, GNAQ / Fold change vs veh, GNAQ / RFU, CDK5R1 / Fold change vs veh, CDK5R1 / RFU, ZRANB3 / Fold change vs veh, ZRANB3 / RFU, CUL4A / Fold change vs veh, CUL4A / RFU, CCNY / Fold change vs veh, CCNY / RFU, UFL1 / Fold change vs veh, UFL1 / RFU, COG3 / Fold change vs veh, COG3 / RFU, DIAPH2 / Fold change vs veh, DIAPH2 / RFU, SKA2 / Fold change vs veh, SKA2 / RFU, AFF3 / Fold change vs veh, AFF3 / RFU, LMF1 / Fold change vs veh, LMF1 / RFU, IPO11 / Fold change vs veh, IPO11 / RFU, DFFB / Fold change vs veh, DFFB / RFU, FOXP1 / Fold change vs veh, FOXP1 / RFU, CARD8 / Fold change vs veh, CARD8 / RFU, STRN3 / Fold change vs veh, STRN3 / RFU, ADK / Fold change vs veh, ADK / RFU, RASSF2 / Fold change vs veh, RASSF2 / RFU, WIPF1 / Fold change vs veh, WIPF1 / RFU, LARP1B / Fold change vs veh, LARP1B / RFU, RASA1 / Fold change vs veh, RASA1 / RFU, RB1 / Fold change vs veh, RB1 / RFU, PPFIA1 / Fold change vs veh, PPFIA1 / RFU, MAT2A / Fold change vs veh, MAT2A / RFU, CCT5 / Fold change vs veh, CCT5 / RFU, WDR92 / Fold change vs veh, WDR92 / RFU, CUX1 / Fold change vs veh, CUX1 / RFU, TTC7A / Fold change vs veh, TTC7A / RFU, TMEM135 / Fold change vs veh, TMEM135 / RFU, DEPTOR / Fold change vs veh, DEPTOR / RFU, CPM / Fold change vs veh, CPM / RFU, DNAJB6 / Fold change vs veh, DNAJB6 / RFU, CACNA2D3 / Fold change vs veh, CACNA2D3 / RFU, DTX4 / Fold change vs veh, DTX4 / RFU, TFCP2 / Fold change vs veh, TFCP2 / RFU, GMCL1 /// GMCL1P1 / Fold change vs veh, GMCL1 /// GMCL1P1 / RFU, AEBP2 / Fold change vs veh, AEBP2 / RFU, SNHG1 /// SNORD22 /// SNORD25 /// SNORD26 /// SNORD27 /// SNORD28 /// SNORD29 /// SNORD31 / Fold change vs veh, SNHG1 /// SNORD22 /// SNORD25 /// SNORD26 /// SNORD27 /// SNORD28 /// SNORD29 /// SNORD31 / Fold change (Aza/veh), C12orf56 (ProbeSet 11735607_a_at) / Fold change (ACY-1035/veh), C12orf56 (ProbeSet 11735607_a_at) / Fold change (Aza/veh), FGFR1OP (ProbeSet 11751329_s_at) / Fold change (ACY-1035/veh), FGFR1OP (ProbeSet 11751329_s_at) / Fold change (Aza/veh), VPS36 (ProbeSet 11739960_a_at) / Fold change (ACY-1035/veh), VPS36 (ProbeSet 11739960_a_at) / RFU SYPL1 (11715823_x_at) / Fold change /veh SYPL1 (11715823_x_at) / RFU IGFBP7 (11715501_s_at) / Fold change /veh IGFBP7 (11715501_s_at) / RFU REEP3 (11722064_at) / Fold change /veh REEP3 (11722064_at) / RFU IGLL1 (11728026_x_at) / Fold change /veh IGLL1 (11728026_x_at): dose or concentration left out as unconfirmed
Conditions: ProbeSet 11718569_a_at; LIST D

Q: How did the “RFU, WIPF1” value turn out when Nc1ccc(-c2cccs2)cc1NC(=O)c1ccc2c(c1)cc(C1CC1)n2CCN1CCOCC1 [ACY-1035] was run?
A: 108.27 RFU
